Test results as given in paper PMC7550916 (Computational and Structural Biotechnology Journal, 2020).

Key:
[1] = test system: human A2A^Δ40R (pHALO-tagged); type: binding
[2] = test system: non-transfected HEK-293T cells; test: ERK1/2 phosphorylation in non-transfected cells; type: cell-based, human; conditions: non-transfected HEK-293T cells (Fig. S1A)
[3] = target: A2AR (Homo sapiens, UniProt P29274); test: cAMP determination; conditions: against all agonists (Fig. S8)
A2AR, sequence (P29274 whole entry): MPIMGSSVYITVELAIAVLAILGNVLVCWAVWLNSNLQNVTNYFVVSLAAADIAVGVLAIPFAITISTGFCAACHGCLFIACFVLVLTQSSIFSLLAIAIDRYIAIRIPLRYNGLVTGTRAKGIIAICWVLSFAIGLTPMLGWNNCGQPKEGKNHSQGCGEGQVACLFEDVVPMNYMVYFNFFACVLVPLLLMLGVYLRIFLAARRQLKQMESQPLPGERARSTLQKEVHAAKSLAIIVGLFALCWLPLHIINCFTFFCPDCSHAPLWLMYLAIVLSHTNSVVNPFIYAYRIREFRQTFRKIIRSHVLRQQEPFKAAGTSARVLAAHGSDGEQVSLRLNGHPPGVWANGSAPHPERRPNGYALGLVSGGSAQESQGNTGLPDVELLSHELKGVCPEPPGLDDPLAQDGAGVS

ΔΔG (binding free energy difference between wild type and truncated receptor) [1] | effect of antagonist on agonist-induced cAMP production [3] | SMILES | ERK1/2 phosphorylation vs basal [2]
0.5 kcal/mol |  | CCNC(=O)[C@H]1O[C@@H](n2cnc3c(N)nc(NCCc4ccc(CCC(=O)O)cc4)nc32)[C@H](O)[C@@H]1O [CGS-21680] | not significantly different to the basal condition
 | blockade of cAMP production | Nc1nc2c(cnn2CCc2ccccc2)c2nc(-c3ccco3)nn12 [SCH-58261] | 
